The results in this text go back to ChEMBL document CHEMBL5316284, “Structural Determinants of Indole-2-carboxamides: Identification of Lead Acetamides with Pan Antimycobacterial Activity” (J Med Chem, 2023).

As usually defined, the MIC is the least concentration at which growth counts as inhibited. The IC50 is the point on the concentration scale where inhibition reaches its midpoint.

A short description of data set [1]: Permeability of the compound by PAMPA method. In kind it is ADME. (In PAMPA a lipid-coated filter parts donor from acceptor wells.)
The test system of data set [2] is Mycobacteroides abscessus. In words: Antimycobacterial activity against Mycobacterium abscessus […] assessed as inhibition of bacterial growth measured after 5 days by visual analysis. The following applies: 120 h, time 5 day. In kind it is functional.
Data set [3] has as its system Mycobacterium tuberculosis. The data set is described as follows: Antimycobacterial activity against Mycobacterium tuberculosis H37Rv mc2 6206 assessed as inhibition of bacterial growth measured after 7 days by visual analysis. In kind it is functional. The following applies: H37Rv mc2 6206, 168 h, time 7 day.
A short description of data set [4]: Kinetic solubility of compound at pH 7.4 incubated for 6 hrs by LC-MS/MS analysis. The format is physicochemical. The following applies: buffer, read-out: Kinetic_solubility.
Data set [5] can be described thus: Metabolic stability in human liver S9 fraction assessed as parent compound remaining at 5 ug/ml after 90 mins in presence of NADPH by LC/MS analysis. In kind it is ADME, subcellular. The conditions noted are these: s9, 1.5 h, dose 5 µg/ml.
For the next data set, the system named is THP-1. The data set is described as follows: Cytotoxicity against human THP-1 cells assessed as inhibition of cell growth measured after 72 hrs by MTT assay. In kind it is toxicity, cell-based. (Tetrazolium assays rely on reduction of a dye to a coloured formazan, in cell work by metabolically active cells.)
Data set [6] in a line: Selectivity index, ratio of IC50 for Cytotoxicity against human WI26VA4 cells to MIC for antimycobacterial activity against Mycobacterium abscessus […]. The conditions noted are these: read-out: Selectivity Index. The format is toxicity, cell-based.
Data set [7] is described as follows: Selectivity index, ratio of IC50 for Cytotoxicity against human WI26VA4 cells to MIC for antimycobacterial activity against Mycobacterium tuberculosis H37Rv mc2 6206. In kind it is toxicity, cell-based. The following applies: read-out: Selectivity Index.
The nature of data set [8]: Plasma protein binding in human at 10 ug/ml incubated for 4 hrs under shaking condition by LC/MS/MS analysis. In kind it is ADME, cell-free. The conditions noted are these: at 10 µg/mL, read-out: PPB (converted).
Data set [9] is described as follows: Cytotoxicity against human WI26VA4 cells assessed as inhibition of cell growth measured after 72 hrs by MTT assay. In kind it is toxicity, cell-based.
In data set [10] the test system is Mycobacterium intracellulare subsp. chimaera. In words: Antimycobacterial activity against Mycobacterium intracellulare subsp. chimaera 1501948 assessed as inhibition of bacterial growth by visual analysis. In kind it is functional.
Data set [11] is described as follows: Metabolic stability in mouse liver S9 fraction assessed as parent compound remaining at 5 ug/ml after 90 mins in presence of NADPH by LC/MS analysis. The following applies: s9, 1.5 h, dose 5 µg/ml. In kind it is ADME, subcellular.
The nature of data set [12]: Antimycobacterial activity against Mycobacterium avium subsp. avium 2585R assessed as inhibition of bacterial growth by visual analysis. The format is functional.
Data set [13] deals with Mycolicibacterium fortuitum. In words: Antimycobacterial activity against Mycobacterium fortuitum ATCC 6841 assessed as inhibition of bacterial growth by visual analysis. The format is functional.
Data set [14] concerns Mycobacterium intracellulare. In words: Antimycobacterial activity against Mycobacterium intracellulare 1956 assessed as inhibition of bacterial growth by visual analysis. The format is functional.
In a further data set the test system is Mycobacterium kansasii. In words: Antimycobacterial activity against Mycobacterium kansasii ATCC 1279 assessed as inhibition of bacterial growth by visual analysis. In kind it is functional.
A further data set relates to Mycobacteroides chelonae. In words: Antimycobacterial activity against Mycobacteroides chelonae ATCC 35752 assessed as inhibition of bacterial growth by visual analysis. In kind it is functional.
Data set [15] deals with Mycobacteroides abscessus. The data set is described as follows: Antimycobacterial activity against Mycobacterium abscessus ATCC 19977 harbouring mmpL3 A309P mutant gene assessed as inhibition of bacterial growth by visual analysis. In kind it is functional.
Data set [16] is described as follows: Cytotoxicity against mouse HEI-OC1 cells assessed as inhibition of cell growth measured after 72 hrs by MTT assay. The format is toxicity, cell-based.
A short description of data set [17]: Binding affinity to Mycobacterium tuberculosis MmpL3 assessed as equilibrium constant by SPR analysis. In general terms: SPR reads the build-up and loss of mass on a sensor chip optically.
The subject of data set [18] is Mycobacteroides abscessus. In words: Antimycobacterial activity against Mycobacterium abscessus ATCC 19977 harbouring mmpL3 L551S mutant gene assessed as inhibition of bacterial growth by visual analysis. The format is functional.
The test system of data set [19] is Mycobacteroides abscessus. In words: Antimycobacterial activity against Mycobacterium abscessus ATCC 19977 harbouring wild type mmpL3 gene assessed as inhibition of bacterial growth by visual analysis. In kind it is functional.
In data set [20] the test system is Mycobacteroides abscessus. In words: Antimycobacterial activity against Mycobacterium abscessus […] assessed as decrease in mycolic acid transfer onto cell wall arabinogalactan incubated for 3 hrs in presence of [1,2-14C]-acetate by TLC analysis. The format is functional, organism-based.
For data set [21], the system named is Mycobacteroides abscessus. The data set is described as follows: Antimycobacterial activity against Mycobacterium abscessus […] assessed as decrease in mycolic acid transfer onto cell wall trehalose dimycolate incubated for 3 hrs in presence of [1,2-14C]-acetate by TLC analysis. In kind it is functional, organism-based.
The test system of data set [22] is Mycobacteroides abscessus. The data set is described as follows: Antimycobacterial activity against Mycobacterium Mycobacterium abscessus ATCC 19977 harbouring mmpL3 I306S mutant gene assessed as inhibition of bacterial growth by visual analysis. The format is functional.
Data set [23] in a line: Binding affinity to Mycobacterium tuberculosis MmpL3 assessed as dissociation constant by SPR analysis.
In data set [24] the test system is Mycobacterium tuberculosis. The data set is described as follows: Displacement of North 114 from Mycobacterium tuberculosis wild type MmpL3 expressed in Mycobacterium smegmatis upto 8 uM incubated for 15 mins by flow cytometry based competition binding assay.
In data set [25] the test system is Mycobacteroides abscessus. In words: Antimycobacterial activity against Mycobacterium abscessus […] assessed as inhibition of mycolic acid biosynthesis at 1 to 10 times of MIC incubated for 3 hrs in presence of [1,2-14C]-acetate by TLC analysis. The format is functional, organism-based.
Data set [26] can be described thus: Cytotoxicity against mouse HEI-OC1 cells assessed as viable cells upto 100 uM measured after 72 hrs by MTT assay. The format is toxicity, cell-based. The following applies: hei-oc1, 72 h.

Converted amounts (≈) assume the structure as drawn. The source made the active and inactive calls. No cut-off for these calls is given here.

For `Cc1cc(C)c2cc(C(=O)NC3CCCCCCC3)[nH]c2c1`, in data set [1], the permeability was 0.18 10^-6 cm/s. Further, the minimum inhibitory concentration (MIC) came to 0.063 µg/mL (≈ 0.211 µM) in data set [2] and 0.02 µg/mL (≈ 0.067 µM) in data set [3]. In addition, the solubility kinetic at 6 h in data set [4] is 1.6 µg/mL (≈ 5.36 µM). In addition, in data set [5], the t1/2 turned out to be 0.5 h. The IC50 in the data set with THP-1 was more than 14.9 µg/mL. Besides, the selectivity ratio in data set [6] is more than 237; in data set [7], more than 764. Moreover, the fraction unbound at 4 h, 10 ug/ml in data set [8] is 0.018.
For `C[C@@H]1[C@H]2C[C@@H](C[C@H]1NC(=O)CNc1ccccc1Cl)C2(C)C`, the concentration for half-maximal inhibition (IC50) in data set [9] is more than 20 µg/mL. The permeability in [1] was 0.38 10^-6 cm/s. Further, the MIC in data set [2] is 1 µg/mL (≈ 3.12 µM); in data set [3], 0.25 µg/mL (≈ 0.779 µM); in data set [10] it was more than 64 µg/mL; in data set [12], 16 µg/mL (≈ 49.9 µM); in [13], 2 µg/mL (≈ 6.23 µM); in data set [14] it was 16 µg/mL (≈ 49.9 µM). The MIC was found to be 16 µg/mL (≈ 49.9 µM) with Mycobacterium kansasii and 4 µg/mL (≈ 12.5 µM) with Mycobacteroides chelonae. The t1/2 in data set [11] worked out at 8.6 h; in [5], 5.1 h. In addition, in data set [4], the solubility kinetic at 6 h is 14.3 µg/mL (≈ 44.6 µM). In addition, the selectivity ratio in data set [6] was more than 20; in data set [7], more than 80. Besides, the fraction unbound at 4 h, 10 ug/ml in data set [8] was 0.045.
As to `C[C@@H]1[C@H]2C[C@@H](C[C@H]1NC(=O)CNc1cccc(Cl)c1)C2(C)C`, in data set [9], the IC50 was more than 20 µg/mL. Moreover, the MIC in [15] was more than 64 µg/mL; in [3] it was 0.25 µg/mL (≈ 0.779 µM); in data set [10], 16 µg/mL (≈ 49.9 µM); in data set [12] it was 8 µg/mL (≈ 24.9 µM); in data set [13], 2 µg/mL (≈ 6.23 µM); in data set [18], 0.5 µg/mL (≈ 1.56 µM). The MIC is 0.5 µg/mL (≈ 1.56 µM) in data set [19]; 8 µg/mL (≈ 24.9 µM) in data set [14]; 8 µg/mL (≈ 24.9 µM) in the data set with Mycobacterium kansasii; 1 µg/mL (≈ 3.12 µM) in [22]; 4 µg/mL (≈ 12.5 µM) in the data set with Mycobacteroides chelonae. The permeability in data set [1] is listed as 1.33 10^-6 cm/s. Besides, in [16], the IC50 at 72 h stood at 14.1 µM. The values for the Kd in data set [17] and in data set [23] were 800 µM and 1.22 s⁻¹, respectively. Moreover, the t1/2 was 4.6 h in data set [11] and 5.3 h in data set [5]. Moreover, the solubility kinetic at 6 h in data set [4] was found to be 16.3 µg/mL (≈ 50.8 µM). The outcome in data set [20], in data set [21] and in data set [24] was Active. Further, the results for the selectivity ratio in [6] and in [7] were more than 40 and more than 80, respectively. For the same molecule, in data set [8], the fraction unbound at 4 h, 10 ug/ml was 0.059. For the same molecule, the outcome in data set [25] was inactive.
Take `O=C(CNc1cccc(OC(F)(F)F)c1)NC12CC3CC(CC(C3)C1)C2`: the IC50 in data set [9] was more than 20 µg/mL. The MIC in data set [15] is more than 64 µg/mL; in data set [3], 0.25 µg/mL (≈ 0.679 µM); in data set [10] it was 16 µg/mL (≈ 43.4 µM); in data set [12], 8 µg/mL (≈ 21.7 µM); in data set [13] it was 2 µg/mL (≈ 5.43 µM); in data set [18] it was 0.5 µg/mL (≈ 1.36 µM). Also, the MIC in data set [19] came to 0.5 µg/mL (≈ 1.36 µM); in [14], 8 µg/mL (≈ 21.7 µM); with Mycobacterium kansasii, 8 µg/mL (≈ 21.7 µM); in data set [22], 1 µg/mL (≈ 2.71 µM); in the data set with Mycobacteroides chelonae, 4 µg/mL (≈ 10.9 µM). Besides, in [1], the permeability is given as 3.61 10^-6 cm/s. Besides, the figures for the Kd in data set [17] and in data set [23] were 780 µM and 1.23 s⁻¹, respectively. Further, the t1/2 turned out to be 0.4 h in [11] and 0.7 h in [5]. Also, the solubility kinetic at 6 h in [4] was found to be 20.4 µg/mL (≈ 55.4 µM). Besides, the outcome in data set [20], in data set [21] and in [24] was Active. Further, the selectivity ratio was more than 40 in data set [6] and more than 80 in data set [7]. Moreover, in [26], the Activity amounted to 70.8%. For the same molecule, the fraction unbound at 4 h, 10 ug/ml in data set [8] is 0.051. In data set [25], the result was inactive.
`CC[C@H]1OC(=O)[C@H](C)[C@@H](O[C@H]2C[C@@](C)(OC)[C@@H](O)[C@H](C)O2)[C@H](C)[C@@H](O[C@@H]2O[C@H](C)C[C@H](N(C)C)[C@H]2O)[C@](C)(OC)C[C@@H](C)C(=O)[C@H](C)[C@@H](O)[C@]1(C)O` [CLARITHROMYCIN]: the MIC in [15] came to 4 µg/mL (≈ 5.35 µM); in data set [18], 8 µg/mL (≈ 10.7 µM); in [22], 4 µg/mL (≈ 5.35 µM).
